Measured values from patent US6919334B2, “Antidepressant azaheterocyclymethyl derivatives of 4,5-dihydroimidazo[1,4,5-de][1,4]benzoxazine” (Wyeth, priority 2002, dated 2005).

Columns and labels:
[1] = target: T1, serotonin transporter (Rattus norvegicus, UniProt P31652); assay: 3H-paroxetine displacement, affinity for the serotonin transporter; type: binding
T1 construct: displace ^3H-paroxetine from male rat frontal cortical membranes; from tissue; host or cells: male rat frontal cortex membranes
T1 sequence (P31652 whole entry): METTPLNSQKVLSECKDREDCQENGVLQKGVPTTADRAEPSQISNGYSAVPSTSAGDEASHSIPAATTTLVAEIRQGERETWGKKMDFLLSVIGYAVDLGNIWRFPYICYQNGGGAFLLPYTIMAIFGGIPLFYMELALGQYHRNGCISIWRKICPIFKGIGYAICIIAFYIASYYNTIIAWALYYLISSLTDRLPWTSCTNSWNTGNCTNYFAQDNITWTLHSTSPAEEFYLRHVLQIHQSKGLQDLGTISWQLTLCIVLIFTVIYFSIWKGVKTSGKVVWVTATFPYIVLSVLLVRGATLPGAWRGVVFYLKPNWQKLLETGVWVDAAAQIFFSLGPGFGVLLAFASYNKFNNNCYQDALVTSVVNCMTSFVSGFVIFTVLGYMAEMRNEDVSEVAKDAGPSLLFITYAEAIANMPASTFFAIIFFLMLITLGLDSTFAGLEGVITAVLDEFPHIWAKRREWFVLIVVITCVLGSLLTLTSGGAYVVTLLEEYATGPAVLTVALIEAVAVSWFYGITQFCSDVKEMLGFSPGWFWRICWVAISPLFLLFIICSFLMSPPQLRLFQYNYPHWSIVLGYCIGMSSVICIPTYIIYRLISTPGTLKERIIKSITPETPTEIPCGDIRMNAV

[2] = target: T2, human 5-HT1A receptors (Homo sapiens, UniProt P08908); assay: [3H] 8-OHDPAT displacement from 5-HT1A receptor (transfected CHO cells); type: binding; details: percent displacement of [3H] 8-OHDPAT at 1 micromolar; CHO cells with human 5-HT1A
T2 construct: expressed in transfected cells; host or cells: CHO cells, stably transfected
T2 sequence (P08908 1-422): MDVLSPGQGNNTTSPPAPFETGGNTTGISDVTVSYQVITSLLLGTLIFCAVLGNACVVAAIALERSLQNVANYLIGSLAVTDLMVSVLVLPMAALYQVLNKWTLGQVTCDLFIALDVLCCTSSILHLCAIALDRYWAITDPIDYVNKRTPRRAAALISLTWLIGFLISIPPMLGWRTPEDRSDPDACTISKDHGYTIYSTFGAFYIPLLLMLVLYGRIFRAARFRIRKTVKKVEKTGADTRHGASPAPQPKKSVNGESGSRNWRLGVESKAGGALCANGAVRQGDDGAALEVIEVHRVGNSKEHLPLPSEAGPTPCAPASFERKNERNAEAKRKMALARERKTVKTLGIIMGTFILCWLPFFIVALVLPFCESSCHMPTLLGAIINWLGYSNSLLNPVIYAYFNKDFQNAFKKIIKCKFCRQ
Text: Affinity for the serotonin 5-HT1A receptor was established by testing the claimed compound's ability to displace [^3H] 8-OHDPAT (dipropylaminotetralin) from the 5-HT1A serotonin receptor following a modification of the procedure of Hall et al., J. Neurochem. 44, 1685 (1985), which utilizes CHO cells stably transfected with human 5-HT1A receptors.

[3] = target: T3, cloned human 5-HT1A receptors (Homo sapiens, UniProt P08908); assay: 35S-GTPγS binding assay, antagonist activity at 5-HT1A receptors; type: biochemical; details: reversal of agonist 8-OHDPAT; for IC50: membranes with cloned human 5-HT1A, read-out: 5-HT1A Function IC50; for 5-HT1A Function (Imax), maximum inhibitory effect: value in parentheses
T3 construct: expressed in transfected cells
T3 sequence (P08908 1-422): T2 sequence (P08908 1-422)
Description: Antagonist activity at 5-HT1A receptors was established by using a ^35S-GTPγS binding assay similar to that used by Lazareno and Birdsall (Br. J. Pharmacol. 109: 1120, 1993), in which the test compound's ability to affect the binding of ^35S-GTPγS to membranes containing cloned human 5-HT1A receptors was determined. Agonists produce an increase in binding whereas antagonists produce no increase but rather reverse the effects of the standard agonist 8-OHDPAT. The test compound's maximum inhibitory effect is represented as the Imax, while its potency is defined by the IC50.

For O=c1[nH]c2cccc3c2n1C(CN1CC=C(c2c[nH]c4ccccc24)CC1)CO3 (stereo not drawn) [Example 1, 4-{[4-(1H-indol-3-yl)-3,6-dihydropyridin-1(2H)-yl]methyl}-4,5-dihydroimidazo[1,5,4-de][1,4]benzoxazin-2(1H)-one], the Ki [1] was 1.07 nM, the “5-HT1A Receptor Affinity % @ 1 μM” value [2] was 94% and the IC50 [3] was 300 nM. For the same molecule, the “5-HT1A Function (Imax), maximum inhibitory effect” value [3] was 30 and the melting point was 147 to 149 °C.

For O=c1[nH]c2cccc3c2n1C(CN1CC=C(c2c[nH]c4ccc(F)cc24)CC1)CO3 (stereo not drawn) [Example 2], the Ki [1] was 2.08 nM, the “5-HT1A Receptor Affinity % @ 1 μM” value [2] was 36% and the IC50 [3] was 300 nM. The “5-HT1A Function (Imax), maximum inhibitory effect” value [3] was 30 and the melting point was 152 to 155 °C.

In the case of O=c1[nH]c2cccc3c2n1C(CN1CC=C(c2c[nH]c4ccc(Cl)cc24)CC1)CO3 (stereo not drawn) [Example 3, 4-{[4-(5-chloro-1H-indol-3-yl)-3,6-dihydropyridin-1(2H)-yl]methyl}-4,5-dihydroimidazo[1,5,4-de][1,4]benzoxazin-2(1H)-one], the Ki [1] is reported as 15 nM, the “5-HT1A Receptor Affinity % @ 1 μM” value [2] is reported as 81% and the IC50 [3] is reported as 300 nM. For the same molecule, the “5-HT1A Function (Imax), maximum inhibitory effect” value [3] was 30 and the melting point was 153 to 155 °C.

With N#Cc1ccc2[nH]cc(C3=CCN(CC4COc5cccc6[nH]c(=O)n4c56)CC3)c2c1 (stereo not drawn) [Example 4, 3-{1-[(2-Oxo-1,2,4,5-tetrahydroimidazo[1,5,4-de][1,4]benzoxazin-4-yl)methyl]-1,2,3,6-tetrahydropyridin-4-yl}-1H-indole-5-carbonitrile] the Ki [1] was 3.55 nM, the “5-HT1A Receptor Affinity % @ 1 μM” value [2] was 49% and the IC50 [3] was 750 nM. The “5-HT1A Function (Imax), maximum inhibitory effect” value [3] was 100 and the melting point was > 160 °C.

In the case of O=c1[nH]c2cccc3c2n1C(CN1CC=C(c2c[nH]c4c(F)cccc24)CC1)CO3 (stereo not drawn) [Example 5, 4-{[4-(7-Fluoro-1H-indol-3-yl)-3,6-dihydropyridin-1(2H)-yl]methyl}-4,5-dihydroimidazo[1,5,4-de][1,4]benzoxazin-2(1H)-one], the Ki [1] is reported as 1.23 nM, the “5-HT1A Receptor Affinity % @ 1 μM” value [2] is reported as 48% and the IC50 [3] is reported as 750 nM. For the same molecule, the “5-HT1A Function (Imax), maximum inhibitory effect” value [3] was 100 and the melting point was > 120 °C.

For Cc1nc2cccc3c2n1C(CN1CC=C(c2c[nH]c4ccccc24)CC1)CO3 (stereo not drawn) [Example 6, 4-{[4-(1H-indole-3-yl)-3,6-dihydropyridin-1(2H)-yl]methyl}-2-methyl-4,5-dihydroimidazo[1,5,4-de][1,4]benzoxazine], the Ki [1] was 1.86 nM, the “5-HT1A Receptor Affinity % @ 1 μM” value [2] was 39% and the IC50 [3] was 450 nM. The “5-HT1A Function (Imax), maximum inhibitory effect” value [3] was 100 and the melting point was 222 to 225 °C.
